Laboratory results: PubChem BioAssay AID248 (DTP/NCI, 2004)
Values joined by “and” are separate entries in the source; they are usually repeats but may differ in a detail not shown here. Identical values can stand only once. Inconclusive results and toxic doses are left out. Rule as the data show it: active = T/C of 150% or more; inactive = T/C below 125%.

Tested on: L1210 leukemia ip in BDF1 mice, survival T/C
Assay: NCI In Vivo Anticancer Drug Screen. Data for tumor model L1210 Leukemia (intraperitoneal) in B6D2F1 (BDF1) mice
Settings: endpoint: mean survival time, higher = longer survival
Summary of the method: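 Antitumor effect is assessed in tumor-bearing animals. Survival in the compound arm is compared with a vehicle-dosed control arm and expressed as their quotient.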

[1] = dose: 25.0 mg/kg/injection, schedule: Q04DX003 (ip), vehicle: saline
[2] = dose: 50.0 mg/kg/injection, schedule: Q04DX003 (ip), vehicle: saline
[3] = dose: 100.0 mg/kg/injection, schedule: Q04DX003 (ip), vehicle: saline with Tween-80
[4] = dose: 200.0 mg/kg/injection, schedule: Q04DX003 (ip), vehicle: saline with Tween-80
[5] = dose: 400.0 mg/kg/injection, schedule: Q04DX003 (ip), vehicle: saline with Tween-80
[6] = dose: 100.0 mg/kg/injection, schedule: Q04DX003 (ip), vehicle: Klucel (hydroxypropylcellulose) (HPC)
[7] = dose: 200.0 mg/kg/injection, schedule: Q04DX003 (ip), vehicle: Klucel (hydroxypropylcellulose) (HPC)
[8] = dose: 100.0 mg/kg/injection, schedule: Q01DX001 (ip), vehicle: saline
[9] = dose: 200.0 mg/kg/injection, schedule: Q01DX001 (ip), vehicle: saline
[10] = dose: 400.0 mg/kg/injection, schedule: Q01DX001 (ip), vehicle: saline
[11] = dose: 100.0 mg/kg/injection, schedule: Q01DX001 (ip), vehicle: Klucel (hydroxypropylcellulose) (HPC)
[12] = dose: 6.25 mg/kg/injection, schedule: Q01DX009 (ip), vehicle: water
[13] = dose: 12.5 mg/kg/injection, schedule: Q01DX009 (ip), vehicle: water
[14] = dose: 25.0 mg/kg/injection, schedule: Q01DX009 (ip), vehicle: water
[15] = dose: 100.0 mg/kg/injection, schedule: Q04DX003 (ip), vehicle: saline
[16] = dose: 200.0 mg/kg/injection, schedule: Q04DX003 (ip), vehicle: saline
[17] = dose: 50.0 mg/kg/injection, schedule: Q01DX009 (ip), vehicle: saline with Tween-80
[18] = dose: 400.0 mg/kg/injection, schedule: Q04DX003 (ip), vehicle: Klucel (hydroxypropylcellulose) (HPC)

Measured: T/C

NS(=O)(=O)O.[Ni]
inactive: dose: 16.0 mg/kg/injection, schedule: Q04DX003 (ip), vehicle: saline 108 % of control | [1] 92 % of control | dose: 35.0 mg/kg/injection, schedule: Q04DX003 (ip), vehicle: saline 93 % of control | [2] 103 % of control

O=Cc1ccc([N+](=O)[O-])s1
inactive: dose: 100.0 mg/kg/injection, schedule: Q01DX009 (ip), vehicle: saline with Tween-80 101 % of control | [3] 102 % of control | dose: 200.0 mg/kg/injection, schedule: Q01DX009 (ip), vehicle: saline with Tween-80 97 % of control | [4] 110 % of control | dose: 400.0 mg/kg/injection, schedule: Q01DX009 (ip), vehicle: saline with Tween-80 101 % of control | [5] 121 % of control

O=S(=O)(Nc1ccccc1)c1ccccc1C#Cc1ccccc1
inactive: dose: 100.0 mg/kg/injection, schedule: Q01DX001 (ip), vehicle: steriod suspending solution 105 % of control | dose: 200.0 mg/kg/injection, schedule: Q01DX001 (ip), vehicle: steriod suspending solution 100 % of control | dose: 400.0 mg/kg/injection, schedule: Q01DX001 (ip), vehicle: steriod suspending solution 97 % of control

CC(=O)OC1OC(CS[As](C)C)C(OC(C)=O)C(OC(C)=O)C1OC(C)=O (centres undefined)
inactive: [6] 94 % of control | [7] 105 % of control

CC1(C)Oc2c(ccc(O)c2CN2CCCCC2)C2=C1CCCC2
inactive: [8] 89 % of control

CCC(C)C(CN)(CCN(C)C)Cc1cccc2ccccc12 (centres undefined)
inactive: dose: 12.5 mg/kg/injection, schedule: Q04DX003 (ip), vehicle: saline 93 % of control | [1] 96 % of control | [2] 101 % of control

O=C1CC(=O)c2ccccc21
inactive: [3] 98 % of control | [4] 92 % of control | [5] 93 % of control

O=[N+]([O-])c1c(O)cc(O)c2ccccc12
inactive: dose: 5.0 mg/kg/injection, schedule: Q01DX001 (ip), vehicle: saline 102 % of control | dose: 10.0 mg/kg/injection, schedule: Q01DX001 (ip), vehicle: saline 106 % of control | dose: 20.0 mg/kg/injection, schedule: Q01DX001 (ip), vehicle: saline 101 % of control | dose: 40.0 mg/kg/injection, schedule: Q01DX001 (ip), vehicle: saline 102 % of control | dose: 80.0 mg/kg/injection, schedule: Q01DX001 (ip), vehicle: saline 104 % of control

O=C(CCCC(=O)N/N=C/c1cc(O)ccc1O)N/N=C\c1cc(O)ccc1O
inactive: dose: 50.0 mg/kg/injection, schedule: Q01DX001 (ip), vehicle: saline 102 % of control | [8] 96 % of control | [9] 90 % of control | [10] 98 % of control

CCCCCCCCCCCCCCCCCOc1ccc(I)cc1
inactive: [6] 91 % of control | [7] 91 % of control

Cc1ccc(-n2c(O)c(N=Nc3ccc(Br)cc3)c(=O)n(-c3ccccc3)c2=S)cc1
inactive: dose: 50.0 mg/kg/injection, schedule: Q01DX001 (ip), vehicle: Klucel (hydroxypropylcellulose) (HPC) 97 % of control | [11] 111 % of control | dose: 200.0 mg/kg/injection, schedule: Q01DX001 (ip), vehicle: Klucel (hydroxypropylcellulose) (HPC) 94 % of control

CC(C)(C)N(CSc1ccc(Cl)cc1)CSc1ccc(Cl)cc1
inactive: [8] 104 % of control | [9] 104 % of control

[NH-]C(CC(N)=O)C(=O)O.[NH-]C(CC(N)=O)C(=O)O.[Ni+2] (centres undefined)
inactive: [12] 92 % of control | [13] 91 % of control | [14] 88 % of control | dose: 25.0 mg/kg/injection, schedule: Q04DX002 (ip), vehicle: saline 110 % of control | dose: 50.0 mg/kg/injection, schedule: Q04DX002 (ip), vehicle: saline 100 % of control | dose: 50.0 mg/kg/injection, schedule: Q04DX003 (ip), vehicle: water 112 % of control | dose: 100.0 mg/kg/injection, schedule: Q04DX002 (ip), vehicle: saline 123 % of control | dose: 100.0 mg/kg/injection, schedule: Q04DX003 (ip), vehicle: water 117 % of control

Cc1ccc2ccccc2n1
inactive: [15] 91 % of control | [16] 93 % of control | dose: 400.0 mg/kg/injection, schedule: Q04DX003 (ip), vehicle: saline 98 % of control

O=C1CCCCc2c1ccc(O)c2[N+](=O)[O-]
inactive: [17] 88 % of control

NCCc1ccc2c(c1)OCO2
inactive: dose: 25.0 mg/kg/injection, schedule: Q01DX009 (ip), vehicle: saline 109 % of control | dose: 50.0 mg/kg/injection, schedule: Q01DX009 (ip), vehicle: saline 107 % of control | dose: 100.0 mg/kg/injection, schedule: Q01DX009 (ip), vehicle: saline 100 % of control and 107 % of control | [15] 97 % of control | [16] 102 % of control

Cc1cc(NC(=O)NCCCl)c2c(c1C)CCCC2
inactive: dose: 20.0 mg/kg/injection, schedule: Q01DX001 (ip), vehicle: Klucel (hydroxypropylcellulose) (HPC) 100 % of control | dose: 40.0 mg/kg/injection, schedule: Q01DX001 (ip), vehicle: Klucel (hydroxypropylcellulose) (HPC) 96 % of control | [11] 90 % of control

CC(C)(C)C(O)c1ccccc1 (centres undefined)
inactive: dose: 25.0 mg/kg/injection, schedule: Q04DX002 (ip), vehicle: saline with Tween-80 97 % of control | dose: 50.0 mg/kg/injection, schedule: Q04DX002 (ip), vehicle: saline with Tween-80 93 % of control | dose: 100.0 mg/kg/injection, schedule: Q04DX002 (ip), vehicle: saline with Tween-80 93 % of control and 92 % of control | dose: 200.0 mg/kg/injection, schedule: Q04DX002 (ip), vehicle: saline with Tween-80 93 % of control and 95 % of control | dose: 400.0 mg/kg/injection, schedule: Q04DX002 (ip), vehicle: saline with Tween-80 95 % of control

CN(CCC(C#N)(CCC#N)c1ccccc1)Cc1ccccc1 (centres undefined)
inactive: dose: 75.0 mg/kg/injection, schedule: Q01DX001 (ip), vehicle: saline 102 % of control | dose: 150.0 mg/kg/injection, schedule: Q01DX001 (ip), vehicle: saline 102 % of control

COC(=O)CNC(=O)C(CSCc1ccccc1)NC(=O)OCc1ccccc1 (centres undefined)
inactive: [6] 94 % of control | [7] 89 % of control | [18] 99 % of control

COC(=O)C1=CNC=C(C(=O)OC)C1c1ccccc1
inactive: [3] 96 % of control | [4] 96 % of control | [5] 98 % of control

COc1cccc(C2N(Cc3ccccc3OC)CCCN2Cc2ccccc2OC)c1
inactive: dose: 50.0 mg/kg/injection, schedule: Q01DX001 (ip), vehicle: carboxymethylcellulose (CMC) 93 % of control | dose: 100.0 mg/kg/injection, schedule: Q01DX001 (ip), vehicle: carboxymethylcellulose (CMC) 102 % of control | dose: 200.0 mg/kg/injection, schedule: Q01DX001 (ip), vehicle: carboxymethylcellulose (CMC) 106 % of control | dose: 400.0 mg/kg/injection, schedule: Q01DX001 (ip), vehicle: carboxymethylcellulose (CMC) 102 % of control

NC(N)=N/N=C\c1ccc2ccccc2c1
inactive: [3] 100 % of control | [5] 88 % of control

N=C(N)c1cccc(CCCCc2ccc(N)cc2)c1
inactive: [6] 94 % of control | [7] 99 % of control

O=C(c1cc(C(F)(F)F)cc(C(F)(F)F)c1)N1CC1
inactive: [12] 96 % of control | [13] 91 % of control | [14] 95 % of control | dose: 50.0 mg/kg/injection, schedule: Q01DX009 (ip), vehicle: water 93 % of control and 86 % of control | dose: 100.0 mg/kg/injection, schedule: Q01DX009 (ip), vehicle: water 88 % of control | dose: 200.0 mg/kg/injection, schedule: Q01DX009 (ip), vehicle: water 95 % of control and 89 % of control | dose: 400.0 mg/kg/injection, schedule: Q01DX009 (ip), vehicle: water 86 % of control

COc1ccc(C(C)(O)c2cnc(C)n2Cc2ccccc2)cc1 (centres undefined)
inactive: [6] 99 % of control | [7] 97 % of control | [18] 95 % of control

CC(C)(C)OC(=O)N1C2c3ccccc3C1C1C2N=NN1c1ccccc1 (centres undefined)
inactive: [8] 110 % of control | [9] 95 % of control | [10] 91 % of control

CN(C)C=NC1(c2ccccc2)CCCCC1
inactive: dose: 25.0 mg/kg/injection, schedule: Q01DX009 (ip), vehicle: saline with Tween-80 96 % of control | [17] 96 % of control
